One assay deals with T1, human PAH with the R408W mutation (Homo sapiens, UniProt P00439, R408W).
T1 construct: expressed in transfected cells
T1 sequence (P00439 1-452 R408W): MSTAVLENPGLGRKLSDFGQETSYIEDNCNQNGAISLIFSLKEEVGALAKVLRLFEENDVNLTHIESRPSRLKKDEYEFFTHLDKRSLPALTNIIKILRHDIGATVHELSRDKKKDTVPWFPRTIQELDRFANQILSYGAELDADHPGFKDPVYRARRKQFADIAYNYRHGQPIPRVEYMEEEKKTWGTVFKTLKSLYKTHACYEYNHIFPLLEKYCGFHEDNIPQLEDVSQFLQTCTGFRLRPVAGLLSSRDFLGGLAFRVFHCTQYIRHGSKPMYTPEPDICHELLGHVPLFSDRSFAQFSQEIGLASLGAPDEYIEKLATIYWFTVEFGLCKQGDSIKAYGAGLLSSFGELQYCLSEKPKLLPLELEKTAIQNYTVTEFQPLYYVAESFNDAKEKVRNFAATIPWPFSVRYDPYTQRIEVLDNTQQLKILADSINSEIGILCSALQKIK
Description: Cell Based Phenylalanine Flux Assay.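 Note: after compound treatment, cells received sepiapterin plus isotope-labelled Phenylalanine for 4 hours, then labelled Tyrosine in the medium was quantified, 10-point 2-fold dilution series run in duplicate.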 Conditions: A375 cells expressing R408W PAH; 24 hrs with compound, then 20 µM sepiapterin and 800 µM 13C9,15N-Phenylalanine for 4 hours; 13C-Tyrosine by LC-MS; average where tested multiple times; read-out: AC50.
Regarding `c1cnc(-c2nnc(N3CCc4[nH]cnc4C3c3cc4c(C5CC5)cccn4n3)o2)nc1` (centres unmarked), the AC50 – broadly, the midpoint of the concentration-response curve, whichever way the signal moves – was 1000 to 5000 nM.

For `Fc1cccn2nc(C3c4nc[nH]c4CCN3c3nc4ccccc4o3)cc12` (centres unmarked), the half-maximal activity concentration (AC50) was 1000 to 5000 nM. Take `FC(F)c1cccn2nc(C3c4[nH]cnc4CCN3c3nnc(-c4ccccn4)o3)cc12` (centres unmarked): the concentration at half-maximal activity (AC50) was in the range of 1000 to 5000 nM. Still for that read-out and setting: the result for `COc1cccn2nc([C@@H]3c4nc[nH]c4CCN3C(=O)c3nnc(-c4ccn(C)n4)o3)cc12` (single isomer, unassigned) reads 1000 to 5000 nM. Still for that read-out and setting: to `Cc1nc([C@H](C)O)oc1C(=O)N1CCc2[nH]cnc2[C@H]1c1cc2cccc(C)n2n1` (single isomer, unassigned) belongs 1000 to 5000 nM.

The assay is the same for the next values; noted with them: A375 cells expressing human PAH R408W; 24 hrs compound incubation; 13C-Tyrosine by LC-MS; average where tested multiple times; read-out: AC50.
As to `O=C(c1nnc(-c2cncnc2)o1)N1CCc2[nH]cnc2[C@@H]1c1cc2c(F)cccn2n1` [Example 1975, (R)-(4-(4-fluoropyrazolo[1,5-a]pyridin-2-yl)-1,4,6,7-tetrahydro-5H-imidazo[4,5-c]pyridin-5-yl)(5-(pyrimidin-5-yl)-1,3,4-oxadiazol-2-yl)methanone], the AC50 was over 5000 nM.

Take `CC(C)c1cccn2nc([C@@H]3c4nc[nH]c4CCN3c3nnc(-c4ncccc4F)o3)cc12` [Example 2355, (S)-2-(3-fluoropyridin-2-yl)-5-(4-(4-isopropylpyrazolo[1,5-a]pyridin-2-yl)-1,4,6,7-tetrahydro-5H-imidazo[4,5-c]pyridin-5-yl)-1,3,4-oxadiazole]: the AC50 lay in the range of 500 to 1000 nM. The same measure, in the same setting: the result for `CC(C)c1nnc(N2CCc3[nH]cnc3[C@H]2c2cc3c(Cl)cccn3n2)o1` [Example 2325, (S)-2-(4-(4-chloropyrazolo[1,5-a]pyridin-2-yl)-1,4,6,7-tetrahydro-5H-imidazo[4,5-c]pyridin-5-yl)-5-isopropyl-1,3,4-oxadiazole] reads under 500 nM. `Cc1cccc2cc([C@@H]3c4nc[nH]c4CCN3C(=O)c3ocnc3C3CC3)nn12` [Example 2070, (S)-(4-cyclopropyloxazol-5-yl)(4-(7-methylpyrazolo[1,5-a]pyridin-2-yl)-1,4,6,7-tetrahydro-5H-imidazo[4,5-c]pyridin-5-yl)methanone]: the half-maximal activity concentration (AC50) is under 500 nM. Still for that read-out and setting: the result for `CCc1cccn2nc([C@H]3c4nc[nH]c4CCN3C(=O)c3nnc(C4CC4)o3)cc12` [Example 1874, (R)-(5-cyclopropyl-1,3,4-oxadiazol-2-yl)(4-(4-ethylpyrazolo[1,5-a]pyridin-2-yl)-1,4,6,7-tetrahydro-5H-imidazo[4,5-c]pyridin-5-yl)methanone] reads over 5000 nM.

Still in this assay, the particulars now being: A375 cells expressing human R408W PAH; 24 hrs compound incubation; 13C-Tyrosine by LC-MS; average where tested multiple times; read-out: AC50.
`c1ccc(-c2nnc(N3CCc4[nH]cnc4[C@H]3c3cc4ccccn4n3)o2)nc1` [Example 1291, (S)-2-(4-(pyrazolo[1,5-a]pyridin-2-yl)-6,7-dihydro-1H-imidazo[4,5-c]pyridin-5(4H)-yl)-5-(pyridin-2-yl)-1,3,4-oxadiazole]: the AC50 fell in the range of 500 to 1000 nM.

On to `Cc1cccn2nc([C@H]3c4nc[nH]c4CCN3c3ncc(C(F)(F)F)cn3)cc12` [Example 1755, (R)-4-(4-methylpyrazolo[1,5-a]pyridin-2-yl)-5-(5-(trifluoromethyl)pyrimidin-2-yl)-4,5,6,7-tetrahydro-1H-imidazo[4,5-c]pyridine], for which the half-maximal activity concentration (AC50) is over 5000 nM.

Take `Cc1cccc2cc([C@H]3c4nc[nH]c4CCN3C(=O)c3nnc(-c4cccnc4)o3)nn12` [Example 1309, (R)-(4-(7-methylpyrazolo[1,5-a]pyridin-2-yl)-6,7-dihydro-1H-imidazo[4,5-c]pyridin-5(4H)-yl)(5-(pyridin-3-yl)-1,3,4-oxadiazol-2-yl)methanone]: the concentration at half-maximal activity (AC50) lay in the range of 1000 to 5000 nM. Same read-out and setting: the result for `O=C(c1nnc(-c2ccn(C(F)F)n2)o1)N1CCc2[nH]cnc2[C@H]1c1cc2cccc(C(F)(F)F)n2n1` [Example 1036, (S)-(5-(1-(difluoromethyl)-1H-pyrazol-3-yl)-1,3,4-oxadiazol-2-yl)(4-(7-(trifluoromethyl)pyrazolo[1,5-a]pyridin-2-yl)-6,7-dihydro-1H-imidazo[4,5-c]pyridin-5(4H)-yl)methanone] reads 500 to 1000 nM. For the molecule `Cc1ccc2cc([C@H]3c4nc[nH]c4CCN3C(=O)c3ccnn3C(F)F)nn2c1` [Example 1113, (R)-(1-(difluoromethyl)-1H-pyrazol-5-yl)(4-(6-methylpyrazolo[1,5-a)pyridin-2-yl)-6,7-dihydro-1H-imidazo[4,5-c]pyridin-5(4H)-yl)methanone], the concentration at half-maximal activity (AC50) was 1000 to 5000 nM. On to `O=C(c1nnc(-c2ccn(C(F)F)n2)o1)N1CCc2[nH]cnc2[C@H]1c1cc2c(F)cccn2n1` [Example 825, (S)-(5-(1-(difluoromethyl)-1H-pyrazol-3-yl)-1,3,4-oxadiazol-2-yl)(4-(4-fluoropyrazolo[1,5-a]pyridin-2-yl)-6,7-dihydro-1H-imidazo[4,5-c]pyridin-5(4H)-yl)methanone], for which the concentration at half-maximal activity (AC50) is under 500 nM. For the molecule `Cn1nc(C(F)F)nc1C(=O)N1CCc2[nH]cnc2[C@H]1c1cc2c(Cl)cccn2n1` [Example 780, (S)-(4-(4-chloropyrazolo[1,5-a]pyridin-2-yl)-6,7-dihydro-1H-imidazo[4,5-c]pyridin-5(4H)-yl)(3-(difluoromethyl)-1-methyl-1H-1,2,4-triazol-5-yl)methanone], the concentration at half-maximal activity (AC50) was under 500 nM. Still for that read-out and setting: to `Cn1cc(-c2nc(C(F)F)c(C(=O)N3CCc4[nH]cnc4[C@H]3c3cc4c(F)cccn4n3)o2)cn1` [Example 902, (S)-(4-(difluoromethyl)-2-(1-methyl-1H-pyrazol-4-yl)oxazol-5-yl)(4-(4-fluoropyrazolo[1,5-a]pyridin-2-yl)-6,7-dihydro-1H-imidazo[4,5-c]pyridin-5(4H)-yl)methanone] belongs under 500 nM; to `Cc1ncoc1C(=O)N1CCc2[nH]cnc2[C@H]1c1cc2cccc(C)n2n1` [Example 1148, (S)-(4-methyloxazol-5-yl)(4-(7-methylpyrazolo[1,5-a]pyridin-2-yl)-6,7-dihydro-1H-imidazo[4,5-c]pyridin-5(4H)-yl)methanone], 500 to 1000 nM; to `Cc1cccn2nc([C@H]3c4nc[nH]c4CCN3C(=O)c3nnc(-c4ccnn4C)o3)cc12` [Example 1017, (R)-(5-(1-methyl-1H-pyrazol-5-yl)-1,3,4-oxadiazol-2-yl)(4-(4-methylpyrazolo[1,5-a]pyridin-2-yl)-6,7-dihydro-1H-imidazo[4,5-c]pyridin-5(4H)-yl)methanone], over 5000 nM. Consider `COc1cccn2nc([C@@H]3c4nc[nH]c4CCN3C(=O)c3nnc(C(C)(C)F)o3)cc12` [Example 971, (S)-(5-(2-fluoropropan-2-yl)-1,3,4-oxadiazol-2-yl)(4-(4-methoxypyrazolo[1,5-a]pyridin-2-yl)-6,7-dihydro-1H-imidazo[4,5-c]pyridin-5(4H)-yl)methanone], for which the AC50 fell in the range of 500 to 1000 nM. Take `Cc1ncccc1-c1nnc(C(=O)N2CCc3[nH]cnc3[C@H]2c2cc3c(C)cccn3n2)o1` [Example 1330, (S)-(4-(4-methylpyrazolo[1,5-a]pyridin-2-yl)-6,7-dihydro-1H-imidazo[4,5-c]pyridin-5(4H)-yl)(5-(2-methylpyridin-3-yl)-1,3,4-oxadiazol-2-yl)methanone]: the AC50 is under 500 nM. Same read-out and setting: to `Cn1ncnc1C(=O)N1CCc2[nH]cnc2[C@H]1c1cc2c(F)cccn2n1` [Example 840, (S)-(4-(4-fluoropyrazolo[1,5-a]pyridin-2-yl)-6,7-dihydro-1H-imidazo[4,5-c]pyridin-5(4H)-yl)(1-methyl-1H-1,2,4-triazol-5-yl)methanone] belongs 500 to 1000 nM.

(Values after US20230365592A1 (Agios Pharmaceuticals, Inc., priority 2022, published 2023).)
